# Data published in patent US9265253B2, “Use of macrocyclic picolinamides as fungicides” (DOW AGROSCIENCES LLC, priority 2013, dated 2016).
# Tests used:
# Format in all cases: in vivo
# Cercospora beticola = assay: Leaf Spot of Sugar Beets (CERCBE) disease control; settings: Cercospora beticola, topical, 24 h, 1 Day Protectant, sugar beet, read-out: Disease Control CERCBE 1 DP
# Procedure: Technical grades of materials were dissolved in acetone, which were then mixed with nine volumes of water containing 110 ppm Triton X-100. The fungicide solutions were applied onto wheat seedlings using an automated booth sprayer to run-off. All sprayed plants were allowed to air dry prior to further handling. All fungicides were evaluated using the aforementioned method for their activity vs. all target diseases. Wheat leaf blotch and brown rust activity were also evaluated using track spray applications, in which case the fungicides were formulated as EC formulations, containing 0.1% Trycol 5941 in the spray solutions. Wheat plants (variety Yuma) were grown from seed in a greenhouse in 50% mineral soil/50% soil-less Metro mix until the first leaf was fully emerged, with 7-10 seedlings per pot. These plants were inoculated with an aqueous spore suspension of Septoria tritici either prior to or after fungicide treatments. After inoculation the plants were kept in 100% relative humidity (one day in a dark dew chamber followed by two to three days in a lighted dew chamber at 20° C.) to permit spores to germinate and infect the leaf. The plants were then transferred to a greenhouse set at 20° C. for disease to develop. When disease symptoms were fully expressed on the 1st leaves of untreated plants, infection levels were assessed on a scale of 0 to 100 percent disease severity. Percent disease control was calculated using the ratio of disease severity on treated plants relative to untreated plants. Sugar beet plants (variety HH88) were grown in soil-less Metro mix and trimmed regularly to maintain a uniform plant size prior to test. Plants were inoculated with a spore suspension 24 hr after fungicide treatments. Inoculated plants were kept in a dew chamber at 22° C. for 48 hr then incubated in a greenhouse set at 24° C. under a clear plastic hood with bottom ventilation until disease symptoms were fully expressed. Fungicide formulation, application and disease assessment on the sprayed leaves followed the procedures as described in the Example A.
# Rhyncosporium secalis = assay: Barley Scald (RHYNSE) disease control; settings: Hordeum vulgare, 24 h, 1 Day Protectant, read-out: Disease Control RHYNSE 1 DP
# Procedure: Technical grades of materials were dissolved in acetone, which were then mixed with nine volumes of water containing 110 ppm Triton X-100. The fungicide solutions were applied onto wheat seedlings using an automated booth sprayer to run-off. All sprayed plants were allowed to air dry prior to further handling. All fungicides were evaluated using the aforementioned method for their activity vs. all target diseases. Wheat leaf blotch and brown rust activity were also evaluated using track spray applications, in which case the fungicides were formulated as EC formulations, containing 0.1% Trycol 5941 in the spray solutions. Wheat plants (variety Yuma) were grown from seed in a greenhouse in 50% mineral soil/50% soil-less Metro mix until the first leaf was fully emerged, with 7-10 seedlings per pot. These plants were inoculated with an aqueous spore suspension of Septoria tritici either prior to or after fungicide treatments. After inoculation the plants were kept in 100% relative humidity (one day in a dark dew chamber followed by two to three days in a lighted dew chamber at 20° C.) to permit spores to germinate and infect the leaf. The plants were then transferred to a greenhouse set at 20° C. for disease to develop. When disease symptoms were fully expressed on the 1st leaves of untreated plants, infection levels were assessed on a scale of 0 to 100 percent disease severity. Percent disease control was calculated using the ratio of disease severity on treated plants relative to untreated plants. Barley seedlings (variety Harrington) were propagated in soil-less Metro mix, with each pot having 8 to 12 plants, and used in the test when first leaf was fully emerged. Test plants were inoculated by an aqueous spore suspension of Rhyncosporium secalis 24 hr after fungicide treatments. After inoculation the plants were kept in a dew room at 20° C. with 100% relative humidity for 48 hr. The plants were then transferred to a greenhouse set at 20° C. for disease to develop. Fungicide formulation, application and disease assessment on the sprayed leaves followed the procedures as described in the Example A.
# [1] = test system: Magnaporthe grisea; Anamorph: Pyricularia oryzae; assay: whole plant or invertebrate; settings: Pyricularia oryzae, topical, 24 h, read-out: Disease Control PYRIOR 1 DP
# [2] = test system: Glomerella lagenarium; Anamorph: Colletotrichum lagenarium; assay: Cucumber Anthracnose (COLLLA) disease control; settings: Colletotrichum orbiculare, topical, 24 h, 1 Day Protectant, read-out: Disease Control COLLLA 1 DP
# Procedure: Technical grades of materials were dissolved in acetone, which were then mixed with nine volumes of water containing 110 ppm Triton X-100. The fungicide solutions were applied onto wheat seedlings using an automated booth sprayer to run-off. All sprayed plants were allowed to air dry prior to further handling. All fungicides were evaluated using the aforementioned method for their activity vs. all target diseases. Wheat leaf blotch and brown rust activity were also evaluated using track spray applications, in which case the fungicides were formulated as EC formulations, containing 0.1% Trycol 5941 in the spray solutions. Wheat plants (variety Yuma) were grown from seed in a greenhouse in 50% mineral soil/50% soil-less Metro mix until the first leaf was fully emerged, with 7-10 seedlings per pot. These plants were inoculated with an aqueous spore suspension of Septoria tritici either prior to or after fungicide treatments. After inoculation the plants were kept in 100% relative humidity (one day in a dark dew chamber followed by two to three days in a lighted dew chamber at 20° C.) to permit spores to germinate and infect the leaf. The plants were then transferred to a greenhouse set at 20° C. for disease to develop. When disease symptoms were fully expressed on the 1st leaves of untreated plants, infection levels were assessed on a scale of 0 to 100 percent disease severity. Percent disease control was calculated using the ratio of disease severity on treated plants relative to untreated plants. Cucumber seedlings (variety Bush Pickle) were propagated in soil-less Metro mix, with each pot having one plant, and used in the test when 12 to 14 days old. Test plants were inoculated with an aqueous spore suspension of Colletotrichum lagenarium 24 hr after fungicide treatments. After inoculation the plants were kept in a dew room at 22° C. with 100% relative humidity for 48 hr to permit spores to germinate and infect the leaf. The plants were then transferred to a growth room set at 22° C. for disease to develop. Fungicide formulation, application and disease assessment on the sprayed leaves followed the procedures as described in the Example A.
SMILES,pest or weed control at 100 ppm (Cercospora beticola) [%],pest or weed control at 100 ppm (Rhyncosporium secalis) [%],pest or weed control at 100 ppm [1] [%],pest or weed control at 100 ppm [2] [%]
COc1ccnc(C(=O)N[C@H]2CCC[C@H](CC(F)F)[C@@H](Oc3ccccc3)[C@H](C)OC2=O)c1OC(C)=O [Compound F82],80 to 100,0 to 80,80 to 100,80 to 100
CCOCC(=O)OCOc1c(OC)ccnc1C(=O)N[C@H]1CCC[C@H](Cc2ccccc2)[C@@H](OCC2CC2)[C@H](C)OC1=O [Compound F173],80 to 100,80 to 100,80 to 100,80 to 100
CCCO[C@@H]1[C@@H](Cc2ccccc2)CCC[C@H](NC(=O)c2nccc(OC)c2OC(C)=O)C(=O)O[C@H]1C [Compound F88],80 to 100,80 to 100,80 to 100,80 to 100
C=C[C@H]1CCC[C@H](NC(=O)c2nccc(OC)c2OC(C)=O)C(=O)O[C@@H](C)[C@@H]1Oc1ccccc1 [Compound F86],80 to 100,80 to 100,80 to 100,80 to 100
CCCO[C@@H]1[C@@H](Cc2ccc(F)cc2)CCC[C@H](NC(=O)c2nccc(OC)c2OCOC(=O)COCC)C(=O)O[C@H]1C [Compound F167],80 to 100,80 to 100,80 to 100,80 to 100
CCCO[C@@H]1[C@@H](Cc2ccc(OC)cc2)CCC[C@H](NC(=O)c2nccc(OC)c2OCOC(C)=O)C(=O)O[C@H]1C [Compound F119],80 to 100,80 to 100,80 to 100,80 to 100
COc1ccnc(C(=O)N[C@H]2CCC[C@H](Cc3ccccc3)[C@@H](Oc3ccccc3)[C@H](C)OC2=O)c1OCOC(C)=O [Compound F108],80 to 100,80 to 100,80 to 100,80 to 100
CCCO[C@@H]1[C@@H](Cc2ccc(F)cc2)CCC[C@H](NC(=O)c2nccc(OC)c2OCOC(C)=O)C(=O)O[C@H]1C [Compound F101],80 to 100,80 to 100,80 to 100,80 to 100
CC[C@H]1CCC[C@H](NC(=O)c2nccc(OC)c2OC(C)=O)C(=O)O[C@@H](C)[C@@H]1Oc1ccccc1 [Compound F81],80 to 100,80 to 100,80 to 100,80 to 100
CCCO[C@@H]1[C@@H](CCC(C)C)CCC[C@H](NC(=O)c2nccc(OC)c2OCOC(C)=O)C(=O)O[C@H]1C [Compound F92],80 to 100,80 to 100,80 to 100,80 to 100
CCOCC(=O)OCOc1c(OC)ccnc1C(=O)N[C@H]1CCC[C@H](Cc2ccc(F)cc2F)[C@@H](OC(=O)c2ccco2)[C@H](C)OC1=O [Compound F193],80 to 100,80 to 100,80 to 100,80 to 100
